PubChem BioAssay (NCI)
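Results reflect a 48-hour exposure of cells in 96-well plates to compound at five concentrations. TGI is the concentration that stops growth completely.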

Experiments:
Assay in all cases: NCI anticancer screen, dose series, 48 h
[1] = system: RXF 393 renal
[2] = system: U251 CNS
[3] = system: CAKI-1 renal
[4] = system: NCI-H226 lung
[5] = system: OVCAR-8 ovarian
[6] = system: NCI-H522 lung
[7] = system: M14 melanoma
[8] = system: HOP-92 NSCLC
[9] = system: SK-MEL-2 melanoma
[10] = system: A498 renal
[11] = system: MALME-3M melanoma
[12] = system: HCT-15 colon
[13] = system: COLO 205 colon
[14] = system: SF-268 CNS
[15] = system: SF-539 CNS
[16] = system: 786-0 renal
[17] = system: ACHN renal
[18] = system: NCI-H460 lung
[19] = system: HS 578T breast

| SMILES | TGI [1] | TGI [2] | TGI [3] | TGI [4] | TGI [5] | TGI [6] | TGI [7] | TGI [8] | TGI [9] | TGI [10] | TGI [11] | TGI [12] | TGI [13] | TGI [14] | TGI [15] | TGI [16] | TGI [17] | TGI [18] | TGI [19] |
| --- | --- | --- | --- | --- | --- | --- | --- | --- | --- | --- | --- | --- | --- | --- | --- | --- | --- | --- | --- |
| Cc1ccc2c(c1CCCC(C)(C)O)C(=O)C(=O)C(C(C)C)=C2O | > 100 µM | > 100 µM | > 100 µM | > 100 µM | > 100 µM | > 100 µM | > 100 µM | > 100 µM | > 100 µM | > 100 µM | > 100 µM | > 100 µM | > 100 µM | > 100 µM | > 100 µM | > 100 µM | > 100 µM | > 100 µM | – |
| CC1=NC(=Cc2ccc(O)cc2)C(=O)N1n1c(-c2ccccc2)nc2ccccc2c1=O | – | – | > 100 µM | > 100 µM | > 100 µM | > 100 µM | > 100 µM | – | – | > 100 µM | > 100 µM | > 100 µM | > 100 µM | > 100 µM | > 100 µM | > 100 µM | > 100 µM | > 100 µM | > 100 µM |
| Cc1cn(C2CC(N(O)Cc3ccccc3)C(CO)O2)c(=O)[nH]c1=O (stereo unspecified) | > 100 µM | > 100 µM | – | > 100 µM | > 100 µM | – | > 100 µM | – | – | – | – | > 100 µM | > 100 µM | > 100 µM | > 100 µM | > 100 µM | > 100 µM | > 100 µM | – |
| COc1ccc2c(c1)CC[C@@H]1[C@@H]2CC[C@]2(C)C(=O)/C(=C/c3ccc(OC)c(OC)c3)C[C@@H]12 | > 100 µM | > 100 µM | > 100 µM | – | – | – | > 100 µM | > 100 µM | > 100 µM | > 100 µM | > 100 µM | > 100 µM | – | – | > 100 µM | > 100 µM | > 100 µM | > 100 µM | – |
| CNC(=S)N/N=C(C)\C(=N/NC(=S)NC)c1ccccc1 | > 100 µM | – | > 100 µM | > 100 µM | – | > 100 µM | > 100 µM | – | – | – | > 100 µM | > 100 µM | > 100 µM | > 100 µM | > 100 µM | > 100 µM | > 100 µM | > 100 µM | 72.5 µM |
| O=c1[nH]cc(COCC(F)(F)C(F)(F)C(F)(F)C(F)F)c(=O)[nH]1 | > 100 µM | > 100 µM | > 100 µM | – | > 100 µM | > 100 µM | > 100 µM | > 100 µM | > 100 µM | – | > 100 µM | > 100 µM | > 100 µM | > 100 µM | – | > 100 µM | > 100 µM | – | – |
| O=C(O)c1ccc(NNc2cc(=O)[nH]c(=O)[nH]2)cc1 | > 100 µM | > 100 µM | – | > 100 µM | > 100 µM | – | > 100 µM | – | > 100 µM | > 100 µM | > 100 µM | > 100 µM | > 100 µM | > 100 µM | > 100 µM | > 100 µM | > 100 µM | > 100 µM | > 100 µM |
| COc1cc2c(cc1OCc1ccccc1)CNCC2 | > 100 µM | > 100 µM | > 100 µM | > 100 µM | > 100 µM | > 100 µM | > 100 µM | > 100 µM | > 100 µM | > 100 µM | > 100 µM | > 100 µM | > 100 µM | > 100 µM | > 100 µM | > 100 µM | > 100 µM | > 100 µM | – |
| CCCCCC(C[N+]1(C)CCOCC1)C(=O)/C=C/c1ccccc1 (stereo unspecified) | 28.2 µM | 21.2 µM | 32.1 µM | 25.6 µM | 39.3 µM | 9.39 µM | 25.9 µM | 35.3 µM | 29.5 µM | 31.7 µM | 32 µM | 25 µM | 35.9 µM | – | 23.5 µM | 4.26 µM | 60.8 µM | > 61.5 µM | – |
| O=[N+]([O-])c1ccc(-n2nnc(C3=NCCCN3)c2-c2ccc(Cl)cc2)cc1 | > 100 µM | > 100 µM | > 100 µM | > 100 µM | > 100 µM | > 100 µM | > 100 µM | > 100 µM | > 100 µM | > 100 µM | > 100 µM | > 100 µM | > 100 µM | > 100 µM | > 100 µM | > 100 µM | > 100 µM | > 100 µM | – |
| COC1=C(Br)[C@H](O)[C@@]2(C=C1Br)CC(C(=O)NCCCCCN=C(N)N)=NO2 | > 10 µM | > 10 µM | – | > 10 µM | > 10 µM | > 10 µM | > 10 µM | – | > 10 µM | > 10 µM | > 10 µM | > 10 µM | > 10 µM | > 10 µM | > 10 µM | > 10 µM | > 10 µM | > 10 µM | > 10 µM |
| CCOC(=O)C(N=Nc1ccc(S(N)(=O)=O)cc1)C(C)=O (stereo unspecified) | > 100 µM | > 100 µM | > 100 µM | > 100 µM | > 100 µM | > 100 µM | > 100 µM | > 100 µM | > 100 µM | > 100 µM | > 100 µM | > 100 µM | > 100 µM | > 100 µM | > 100 µM | > 100 µM | > 100 µM | > 100 µM | – |
| CC(=O)OC1CC2c3cccc4c3C(CC2N(C)C1=O)CN4C(=O)c1ccccc1 (stereo unspecified) | – | 53.3 µM | 54.8 µM | 96.5 µM | 48.8 µM | 34.4 µM | 55.8 µM | 34.8 µM | 64.9 µM | 74.6 µM | – | 46.2 µM | 56.1 µM | > 100 µM | 93.9 µM | 52.2 µM | 55.5 µM | – | – |
| Cc1cccc2c1Oc1cc(Cl)ccc1C2NC(=O)CCN1CCOCC1 (stereo unspecified) | – | > 100 µM | – | – | > 100 µM | > 100 µM | > 100 µM | 95.2 µM | – | – | – | > 100 µM | > 100 µM | > 100 µM | > 100 µM | > 100 µM | – | > 100 µM | – |
